Columns and labels:
[1] = Clearance in rat at 5 mg/kg, po or 1 mg/kg, iv; format: ADME, organism-based; details: in vivo
[2] = target: T1, Cytochrome P450 3A4 (Homo sapiens, UniProt P08684); experiment: Inhibition of human CYP3A4 in human pooled liver microsomes in presence of testosterone as substrate preincubated for 0 mins in presence of NADPH followed by addition of substrate by LC-MS/MS analysis; format: ADME
[3] = AUC in dog at 3 mg/kg, po or 1 mg/kg, iv; format: ADME, organism-based, Canis lupus familiaris; parameters: dose 3 mg/kg; details: in vivo
[4] = Oral bioavailability in rat at 5 mg/kg; format: ADME, organism-based; details: in vivo
[5] = AUC in cynomolgus monkey at 3 mg/kg, po or 1 mg/kg, iv; format: ADME, organism-based, Macaca fascicularis; parameters: dose 3 mg/kg; details: in vivo
[6] = Clearance in dog at 3 mg/kg, po or 1 mg/kg, iv; format: ADME, organism-based, Canis lupus familiaris; details: in vivo
[7] = Inhibition of recombinant full length NS3/4A protease in Hepatitis C virus subtype 3a replicon infected in human HuH7 cells preincubated for 3 days followed by substrate addition and measured after 2 hrs by renilla luciferase reporter gene assay; format: cell-based; details: Huh-7
[8] = Toxicity in rat assessed as histopathological changes measured upto 4 days; details: in vivo, 96 h, time <=4 day
[9] = Drug concentration in rat plasma at 5 mg/kg, po measured upto 24 hrs; format: ADME, organism-based; details: read-out: Ct
[10] = Inhibition of recombinant full length NS3/4A protease in Hepatitis C virus subtype 2a replicon infected in human HuH7 cells preincubated for 3 days followed by substrate addition and measured after 2 hrs by renilla luciferase reporter gene assay; format: cell-based; details: Huh-7
[11] = Toxicity in rat assessed as effect on cardiovascular system by telemetry; details: in vivo
[12] = Toxicity in rabbit assessed as effect on cardiovascular system by telemetry; parameters: species or system Oryctolagus cuniculus; details: in vivo
[13] = Inhibition of recombinant full length NS3/4A protease in Hepatitis C virus subtype 3a infected in human HuH7 cells using Ac-Asp-Glu-Asp (EDANS)-Glu-Glu-Abu-(COO) Ala-Ser-Lys (DABCYL)-NH2 as substrate by FRET assay; details: Huh-7
[14] = target: T1, Cytochrome P450 3A4; experiment: Inhibition of human CYP3A4 in human pooled liver microsomes in presence of midazolam as substrate preincubated for 0 mins in presence of NADPH followed by addition of substrate by LC-MS/MS analysis; format: ADME
[15] = target: T1, Cytochrome P450 3A4; experiment: Inhibition of human CYP3A4 in human pooled liver microsomes at 0.002 to 40 uM in presence of midazolam as substrate preincubated in presence of NADPH followed by addition of substrate by LC-MS/MS analysis; format: ADME; details: TDE = time-dependent effect, dose 0.002-40 µM, time <=30 min
[16] = Inhibition of recombinant full length NS3/4A D168V mutant protease in Hepatitis C virus subtype 1b replicon infected in human HuH7 cells preincubated for 3 days followed by substrate addition and measured after 2 hrs by renilla luciferase reporter gene assay; format: cell-based; details: Huh-7
[17] = target: T1, Cytochrome P450 3A4; experiment: Inhibition of human CYP3A4 in human pooled liver microsomes at 0.002 to 40 uM in presence of testosterone as substrate preincubated in presence of NADPH followed by addition of substrate by LC-MS/MS analysis; format: ADME; details: TDE = time-dependent effect, dose 0.002-40 µM, time <=30 min
[18] = Metabolic stability in human liver microsomes assessed as half-life incubated for 5 to 45 mins in presence of NADPH by LC-MS analysis; format: ADME, Microsome; details: time 5-45 min
[19] = Half-life in dog at 3 mg/kg, po or 1 mg/kg, iv; format: ADME, organism-based, Canis lupus familiaris; details: in vivo
[20] = target: T1, Cytochrome P450 3A4; experiment: Inhibition of human CYP3A4 in human pooled liver microsomes in presence of testosterone as substrate preincubated for 30 mins in presence of NADPH followed by addition of substrate by LC-MS/MS analysis; format: ADME
[21] = Oral bioavailability in dog at 3 mg/kg; format: ADME, organism-based, Canis lupus familiaris; details: in vivo
[22] = Drug concentration in dog plasma at 3 mg/kg, po measured upto 24 hrs; format: ADME, organism-based, Canis lupus familiaris; details: read-out: Ct
[23] = Drug concentration in rat liver at 5 mg/kg, po measured upto 24 hrs; format: ADME, organism-based; details: read-out: Ct
[24] = Cytotoxicity against human Huh-7 cells assessed as reduction in cell viability; format: cell-based
[25] = Inhibition of recombinant full length NS3/4A protease in Hepatitis C virus subtype 1b replicon infected in human HuH7 cells preincubated for 3 days followed by substrate addition and measured after 2 hrs by renilla luciferase reporter gene assay; format: cell-based; details: Huh-7
[26] = Cytotoxicity against human MT2 cells assessed as reduction in cell viability; format: cell-based
[27] = Toxicity in rat assessed as clinical effect measured upto 4 days; details: in vivo, 96 h, time <=4 day
[28] = target: T1, Cytochrome P450 3A4; experiment: Inhibition of human CYP3A4 in human pooled liver microsomes in presence of midazolam as substrate preincubated for 30 mins in presence of NADPH followed by addition of substrate by LC-MS/MS analysis; format: ADME
[29] = Half-life in cynomolgus monkey at 3 mg/kg, po or 1 mg/kg, iv; format: ADME, organism-based, Macaca fascicularis; details: in vivo
[30] = target: T1, Cytochrome P450 3A4; experiment: […] of CYP3A4 in human liver microsome in presence of midazolam as substrate preincubated for upto 30 mins in presence of NADPH followed by addition of substrate by LC-MS/MS analysis; format: ADME; details: microsomes
[31] = tested on: CHO; experiment: Genotoxicity in Chinese Hamster CHO cells assessed as non clastogenicity by micronucleus assay; format: toxicity, cell-based, Cricetulus griseus
[32] = Clearance in cynomolgus monkey at 3 mg/kg, po or 1 mg/kg, iv; format: ADME, organism-based, Macaca fascicularis; details: in vivo
[33] = Oral bioavailability in cynomolgus monkey at 3 mg/kg; format: ADME, organism-based, Macaca fascicularis; details: in vivo
[34] = Inhibition of recombinant full length NS3/4A protease in Hepatitis C virus subtype 1a replicon infected in human HuH7 cells preincubated for 3 days followed by substrate addition and measured after 2 hrs by renilla luciferase reporter gene assay; format: cell-based; details: Huh-7
[35] = Inhibition of recombinant full length NS3/4A R155K mutant protease in Hepatitis C virus subtype 1a replicon infected in human HuH7 cells preincubated for 3 days followed by substrate addition and measured after 2 hrs by renilla luciferase reporter gene assay; format: cell-based; details: Huh-7
[36] = Half-life in rat at 5 mg/kg, po or 1 mg/kg, iv; format: ADME, organism-based; details: in vivo
[37] = AUC in rat at 5 mg/kg, po or 1 mg/kg, iv; format: ADME, organism-based; parameters: dose 5 mg/kg; details: in vivo
[38] = Genotoxicity in Salmonella typhimurium by AMES test; format: toxicity; details: salmonella enterica subsp. enterica serovar typhimurium
[39] = AUC (0 to 24 hrs) in rat at 5 mg/kg, po; format: ADME, organism-based; parameters: time < 24 hr, route oral, dose 5 mg/kg; details: in vivo
[40] = Toxicity in rat assessed as histopathological changes in liver at 100 mg/kg; format: organism-based; details: in vivo
[41] = Ratio of drug concentration in liver to plasma in rat at 5 mg/kg, po measured upto 24 hrs; format: ADME, organism-based; details: liver and plasma
[42] = Toxicity in rat assessed as reduction in blood pressure at 30 to 100 mg/kg; format: organism-based; details: in vivo, dose 30-100 mg/kg
[43] = Clearance in rat at 1 mg/kg, iv; format: ADME, organism-based; details: in vivo
[44] = Toxicity in rat assessed as increase in heart rate at 30 to 100 mg/kg; format: organism-based; details: in vivo, dose 30-100 mg/kg
[45] = Drug concentration in cynomolgus monkey plasma at 3 mg/kg, po measured upto 24 hrs; format: ADME, organism-based, Macaca fascicularis; details: read-out: Ct
[46] = Cmax in rat at 5 mg/kg, po; format: ADME, organism-based; parameters: route oral, dose 5 mg/kg; details: in vivo
[47] = Half life in rat at 1 mg/kg, iv; format: ADME, organism-based; details: in vivo
[48] = Drug concentration in rat plasma at 15 mg/kg, po measured upto 24 hrs; format: ADME, organism-based; details: read-out: Ct
[49] = Clearance in rat at 5 mg/kg, iv; format: ADME, organism-based; details: in vivo
[50] = Ratio of drug concentration in liver to plasma in rat at 15 mg/kg, po measured upto 24 hrs; format: ADME, organism-based; details: liver and plasma
[51] = Drug concentration in rat liver at 15 mg/kg, po measured upto 24 hrs; format: ADME, organism-based; details: read-out: Ct
[52] = Half life in rat at 5 mg/kg, iv; format: ADME, organism-based; details: in vivo
[53] = Cmax in rat at 15 mg/kg, po; format: ADME, organism-based; parameters: route oral, dose 15 mg/kg; details: in vivo
[54] = Metabolic stability in rat liver microsomes assessed as parent compound remaining after 10 mins in presence of NADPH by LC-MS analysis; format: ADME, Microsome; details: read-out: Stabilty
[55] = Oral bioavailability in rat at 15 mg/kg; format: ADME, organism-based; details: in vivo
[56] = AUC (0 to 24 hrs) in rat at 15 mg/kg, po; format: ADME, organism-based; parameters: time < 24 hr, route oral, dose 15 mg/kg; details: in vivo
[57] = Volume of distribution in rat at 15 mg/kg, po or 5 mg/kg, iv; format: ADME, organism-based; details: in vivo

T1 sequence (P08684 whole entry): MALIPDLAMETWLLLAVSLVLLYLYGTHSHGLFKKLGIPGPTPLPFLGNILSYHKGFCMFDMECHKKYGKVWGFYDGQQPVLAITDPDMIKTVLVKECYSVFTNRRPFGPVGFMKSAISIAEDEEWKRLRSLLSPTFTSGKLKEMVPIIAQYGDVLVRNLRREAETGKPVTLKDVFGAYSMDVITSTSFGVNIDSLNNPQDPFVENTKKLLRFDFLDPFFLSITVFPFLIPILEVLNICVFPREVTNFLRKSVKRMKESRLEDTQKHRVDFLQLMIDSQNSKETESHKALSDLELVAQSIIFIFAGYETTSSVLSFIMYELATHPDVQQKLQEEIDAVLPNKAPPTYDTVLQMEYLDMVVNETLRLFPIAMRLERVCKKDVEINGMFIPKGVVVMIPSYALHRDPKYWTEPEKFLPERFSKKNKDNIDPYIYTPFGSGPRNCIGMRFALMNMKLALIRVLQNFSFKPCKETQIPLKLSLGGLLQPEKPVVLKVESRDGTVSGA

Structure (SMILES) | clearance [1] [mL/min/kg] | AUC [3] [µM·h] | bioavailability [4] [%] | AUC [5] [µM·h] | clearance [6] [mL/min/kg] | EC50 [7] [nM] | concentration at 24 h [9] [nM] | EC50 [10] [nM] | IC50 [13] [nM] | EC50 [16] [nM] | half-life [18] [h] | half-life [19] [h] | bioavailability [21] [%] | concentration at 24 h [22] [nM] | concentration at 24 h [23] [nM] | EC50 [25] [nM] | half-life [29] [h] | clearance [32] [mL/min/kg] | EC50 [34] [nM] | EC50 [35] [nM] | also measured
[2H]C([2H])([2H])Oc1cc2ccnc(O[C@@H]3C[C@H]4C(=O)N[C@]5(C(=O)NS(=O)(=O)C6(C)CC6)C[C@H]5/C=C\CC[C@@H](C)C[C@@H](CC)[C@H](NC(=O)OC(C)(C)C(F)(F)F)C(=O)N4C3)c2cc1F | 0.18 | 39.8 | 57 | 0.19 | 1.1 | 12 | 3850 | 1 | 4.8 | 5.8 | 0.55 | 8.7 | 71 | 163 | 4160 | 0.7 | 1.2 | 12.1 | 2.3 | 8 | IC50 [2]: > 40000 nM; Activity [8]: Non-Toxic; Activity [11]: Non-Toxic; Activity [12]: Non-Toxic; IC50 [14]: > 40000 nM; inhibition (INH) [15]: Tde; inhibition (INH) [17]: Tde; IC50 [20]: > 33000 nM; CC50 [24]: 25000 nM; CC50 [26]: 34000 nM; Activity [27]: Non-Toxic; IC50 [28]: 16400 nM; Activity [30]: Not Active; Activity [31]: Non-Toxic; bioavailability [33]: 23.9%; half-life [36]: 13.4 h; AUC [37]: 310 µM·h; Activity [38]: Non-Toxic
CC[C@@H]1C[C@H](C)CC/C=C\[C@@H]2C[C@@]2(C(=O)NS(=O)(=O)C2(C)CC2)NC(=O)[C@@H]2C[C@@H](Oc3ncc(OC)c4ccc(F)cc34)CN2C(=O)[C@H]1NC(=O)OC(C)(C)C(F)(F)F | 1.2 | 71 | 47 | 2.9 | 0.6 | 15 | 422 | 2 | 8.4 | 9 | 0.717 | 11.3 | 67 | 709 | 2070 | 0.6 | 2.8 | 5.5 | 2.3 | 7.6 | AUC(0-t) at 24 h [39]: 32.5 µM·h; Activity [40]: Non-Toxic; Kp at 24 h [41]: 5; Activity [42]: Toxic; clearance [43]: 1.2 mL/min/kg; Activity [44]: Toxic; concentration at 24 h [45]: 13 nM; Cmax [46]: 3610 nM; half-life [47]: 7.9 h; bioavailability [33]: 28%; half-life [36]: 7.9 h; AUC [37]: 37 µM·h
COc1cnc(O[C@@H]2C[C@H]3C(=O)N[C@]4(C(=O)NS(=O)(=O)C5CC5)C[C@H]4/C=C\CC[C@@H](C)C[C@@H](C)[C@H](NC(=O)OC(C)(C)C(F)(F)F)C(=O)N3C2)c2ccccc12 |  |  |  |  |  | 2 |  | 0.8 | 0.9 | 5.5 | 0.198 |  |  |  |  | 0.5 |  |  | 0.5 | 2.2 | concentration at 24 h [48]: 14 nM; clearance [49]: 4.2 mL/min/kg; Kp at 24 h [50]: 34; concentration at 24 h [51]: 480 nM; half-life [52]: 2.7 h; Cmax [53]: 1780 nM; remaining at 10 min [54]: 95%; bioavailability [55]: 15%; AUC(0-t) at 24 h [56]: 11.7 µM·h; Vd [57]: 0.58 L/kg

— ChEMBL document CHEMBL4765464, “Discovery of BMS-986144, a Third-Generation, Pan-Genotype NS3/4A Protease Inhibitor for the Treatment of Hepatitis C Virus Infection” (J Med Chem, 2020)
